Reference: patent US20260256747A1, “ARYL-TRIAZOLYL AND RELATED GPR84 ANTAGONISTS AND USES THEREOF” (Liminal BioSciences Limited, priority 2022, published 2026)

Target: T1, human GPR84 receptor (Homo sapiens, UniProt Q9NQS5)
T1 construct: host or cells: HEK293 cells, transient transfection
Experiment: Gαi biosensor BRET assay in HEK293 cells transfected with GPR84, stimulated with the GPR84 agonist ZQ-16
Type: cell-based
Details: 200 nmol/L ZQ-16; for inhibition at 10 µM / inhibition at 2 µM: HEK293, single concentration; for inhibition at 10 µM: concentration class F = 10 μM; for inhibition at 2 µM: concentration class A = 2 μM
Source text: Background—The following assays can be used for determination of GPR84 activation in living HEK293 cells. The Gαi BRET biosensor (Gagnon et al., 2018; Gales et al., 2006. Nat Struct Mol Biol. 13, 778-86; Saulieres et al., 2012. Nat Chem Biol. 8, 622-30) allows to directly monitor GPR84-mediated activation of Gαi. The Gαi biosensor consists of a Rluc8-tagged Gαi2 subunit, a GFP10-tagged Gγ2 subunit, and an untagged GB1. Agonist stimulation and GPR84 activation triggers a physical separation between the RLuc8-Gαi donor and the GFP10-Gγ2 acceptor, resulting in a decrease in BRET signal whose amplitude is correlated to ligand efficacy (Gales et al., 2006). Moreover, signaling functions of GPCRs are tightly regulated by endocytosis, the targeting of receptors to endosomes and their sorting to lysosomes or recycling to the plasma membrane. The early endosomes (EEs) trafficking assay (Namkung et al., 2016. Nat Commun. 7, 12178) uses Rluc8-tagged GPR84 and Renilla GFP (rGFP) attached to the FYVE domain from human endofin/zinc finger FYVE domain-containing protein 16, which binds phosphatidylinositol 3-phosphate in EEs. Agonist stimulation of GPR84-Rluc8 leads to trafficking of the receptor to EEs, and ensuing increase of the donor concentration relative to the rGFP-FYVE acceptor anchored in the same cellular compartment, and thus results in an increase in BRET signal.
Plasmids—The cDNA clones for human GPR84 receptor, human Gαi2, Gβ1, and Gγ2 were obtained from the cDNA Resource Center (www.cdna.org). GFP10 (F64L, S147P, S202F and H231L variant of Aequorea victoria Green Fluorescent Protein) gBlocks gene fragments (Integrated DNA Technologies, IA) and linker were inserted in frame at the N-terminus of human Gγ2. Rluc8 (A^55T, Cl24A, S130A, K136R, A^143M, M185V, M253L, and S287L variant of the Renilla reniformis luciferase) gBlocks gene fragment was inserted with linkers in frame in between residues 91 and 92 of Gαi2 or at the C-terminus of GPR84. The FYVE domain from human endofin (residues Q739 to K806) attached in frame at the C terminus of a humanized Renilla GFP (rGFP), were synthesized as gBlocks gene fragments.
Bioluminescence Resonance Energy Transfer (BRET) Measurement-HEK293 cells were transfected with GPR84-Rluc8 and rGFP-FYVE for the EEs trafficking biosensor or with GPR84, Gαi2-Rluc8, GFP10-Gγ2, and Gβ1 for the Gαi biosensor. The following day, transiently transfected cells were seeded in 96-well white clear bottom microplates coated with poly-D-lysine and left in culture for 24 hours. Cells were washed once with Tyrode's buffer (140 mmol/L NaCl, 1 mmol/L CaCl2, 2.7 mmol/L KCl, 0.49 mmol/L MgCl2, 0.37 mmol/L NaH2PO4, 5.6 mmol/L glucose, 12 mmol/L NaHCO3, and 25 mmol/L HEPES, pH 7.5) before performing assays in Tyrode's buffer. Test compounds were incubated with cells for 5 (Gai) or 15 (EEs) minutes at 37° C. before addition of 200 nmol/L of the GPR84 agonist ZQ-16 (2-(Hexylthio)-6-hydroxy-4 (3H)-pyrimidinone) for 5 minutes at room temperature (Gai) or 30 minutes at 37° C. (EEs). The Rluc8 substrate coelenterazine 400A (Prolume, Lakeside, AZ) was added at a final concentration of 5 μmol/L and BRET readings were collected using an Infinite M1000 microplate reader (Tecan, Morrisville, NC). BRET2 readings between Rluc8 and GFP10 or rGFP were collected by sequential integration of the signals detected in the 370 to 450 nm (Rluc8) and 510 to 540 nm (GFP10, rGFP) windows. The BRET signal was calculated as the ratio of light emitted by acceptor (GFP10, rGFP) over the light emitted by donor (Rluc8). The values were corrected to net BRET by subtracting the background BRET signal obtained in cells transfected with Rluc8 constructs alone. Ligand-promoted net BRET values were calculated by subtracting vehicle-induced net BRET from ligand-induced net BRET.

T1 sequence (Q9NQS5 whole entry): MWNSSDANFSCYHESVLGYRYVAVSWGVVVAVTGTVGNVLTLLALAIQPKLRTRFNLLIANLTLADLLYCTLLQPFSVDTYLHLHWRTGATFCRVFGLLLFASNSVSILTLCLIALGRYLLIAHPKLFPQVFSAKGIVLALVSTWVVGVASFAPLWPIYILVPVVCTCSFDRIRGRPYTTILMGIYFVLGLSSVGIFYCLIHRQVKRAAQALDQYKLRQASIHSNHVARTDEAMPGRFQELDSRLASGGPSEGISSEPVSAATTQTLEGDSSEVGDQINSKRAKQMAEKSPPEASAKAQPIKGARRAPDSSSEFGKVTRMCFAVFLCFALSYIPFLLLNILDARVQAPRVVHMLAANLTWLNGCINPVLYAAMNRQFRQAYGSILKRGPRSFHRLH

| SMILES | IC50 | inhibition at 10 µM | inhibition at 2 µM |
| --- | --- | --- | --- |
| CCc1cc(C#CCNS(C)(=O)=O)ccc1-c1cn(CC2OCC(C)(C)CO2)nn1 [Compound I-1, N-(3-(4-(1-((5,5-dimethyl-1,3-dioxan-2-yl)methyl)-1H-1,2,3-triazol-4-yl)-3-ethylphenyl)prop-2-ynyl)methanesulfonamide] | 300 to 1000 nM | > 75% |  |
| CCc1cc(C#CCN)ccc1-c1cn(CC2OCC(C)(C)CO2)nn1 [Compound I-2] | 300 to 1000 nM | > 75% |  |
| CC1(C)COC(Cn2cc(-c3ccc(C#CCOC4CC4)cc3C3CC3)nn2)OC1 [Compound I-3] | 300 to 1000 nM | > 75% |  |
| C(#Cc1ccc(-c2cn(CC3OCC4(CC4)CO3)nn2)c(C2CC2)c1)COC1CC1 [Compound I-4] | 300 to 1000 nM |  | > 75% |
| CC(O)C1CN(c2ccc(-c3cn(CC4OCC5(CC5)CO4)nn3)c(N(C)C)c2)C1 (centres unmarked) [Compound I-5, 1-(1-(4-(1-(5,7-dioxaspiro[2.5]octan-6-ylmethyl)-1H-1,2,3-triazol-4-yl)-3-(dimethylamino)phenyl)azetidin-3-yl)ethanol] |  | > 75% |  |
| C(#CC1CCC1)c1cnc(-c2cn(CC3OCC4(CC4)CO3)nn2)c(OC2CC2)c1 [Compound I-6] |  |  | > 75% |
| CN(C)c1cc(N2CC3(CC(O)C3)C2)ccc1-c1cn(CC2OCC3(CC3)CO2)nn1 (centres unmarked) [Compound I-7, 2-(4-(1-(5,7-dioxaspiro[2.5]octan-6-ylmethyl)-1H-1,2,3-triazol-4-yl)-3-(dimethylamino)phenyl)-2-azaspir[3.3]heptan-6-ol] |  | > 75% |  |
| CC(C)(O)C#Cc1cnc(-c2cn(CC3OCC(C)(C)CO3)nn2)c(OC2CC2)c1 [Compound I-8] | 300 to 1000 nM | > 75% |  |
| C(#Cc1cnc(-c2cn(CC3OCC4(CC4)CO3)nn2)c(OC2CC2)c1)CN1CC2(CC2)C1 [Compound I-9] | ≤ 300 nM |  | > 75% |
| CC1(C)COC(Cn2cc(-c3ncc(C(=O)NCc4cnccn4)cc3OC3CC3)nn2)OC1 [Compound I-10] |  | ≤ 25% |  |
| Cc1ccc(C2CC2)nc1-c1cn(CC2OCC(C)(C)CO2)nn1 [Compound I-11] |  |  | ≤ 25% |
| Cc1cc(C#CC2CC2)ccc1-c1cn(Cc2cncs2)nn1 [Compound I-12] |  |  | ≤ 25% |
| Cc1cc(C#CC2CC2)ccc1-c1cn(Cc2cocn2)nn1 [Compound I-13] |  | ≤ 25% |  |
| CC1(C)COC(Cn2cc(-c3ncc(C#N)cc3OC3CC3)nn2)OC1 [Compound I-14] | 300 to 1000 nM | > 75% |  |
| CC(=O)NCC#Cc1cnc(-c2cn(CC3OCC(C)(C)CO3)nn2)c(OC2CC2)c1 [Compound I-15] | ≤ 300 nM |  | > 75% |
| FC1(F)CC12CN(CC#Cc1cnc(-c3cn(CC4OCC5(CC5)CO4)nn3)c(OC3CC3)c1)C2 [Compound I-16] | ≤ 300 nM |  | > 75% |
| c1nc(-c2cn(CC3OCC4(CC4)CO3)nn2)c(OC2CC2)cc1N1CC2(CC2)C1 [Compound I-17] | 300 to 1000 nM | > 75% |  |
| FC1(F)CC12CN(c1cnc(-c3cn(CC4OCC5(CC5)CO4)nn3)c(OC3CC3)c1)C2 [Compound I-18] |  | 25 to 50% |  |
| Cc1cc(C#CC2CC2)ccc1-c1cn(Cc2cscn2)nn1 [Compound I-19] |  |  | ≤ 25% |
| c1nc(-c2cn(CC3OCC4(CC4)CO3)nn2)c(OC2CC2)cc1N1CC2(COC2)C1 [Compound I-20] |  | > 75% |  |
| CC1(C)COC(Cn2cc(-c3ncc(C#CCNC4COC4)cc3OC3CC3)nn2)OC1 [Compound I-21] | ≤ 300 nM |  | > 75% |
| OC1CC2(C1)CN(CC#Cc1cnc(-c3cn(CC4OCC5(CC5)CO4)nn3)c(OC3CC3)c1)C2 (centres unmarked) [Compound I-22] | ≤ 300 nM |  | > 75% |
| CN(C)C(=O)Cn1cc(-c2ncc(C#CC3CC3)cc2OC2CC2)nn1 [Compound I-23, 2-(4-(3-cyclopropoxy-5-(cyclopropylethynyl)pyridin-2-yl)-1H-1,2,3-triazol-1-yl)-N,N-dimethylacetamide] | 1000 to 3000 nM | > 75% |  |
| CN(C)C(=O)Cn1cc(-c2ccc(N3CC(C)(CO)C3)cc2N(C)C)nn1 [Compound I-24] | 1000 to 3000 nM | > 75% |  |
| CN(C)c1cc(N2CC3(COC3)C2)c(F)cc1-c1cn(CC2OCC3(CC3)CO2)nn1 [Compound I-25] | ≤ 300 nM |  | > 75% |

More lines, now with the values ahead:

| IC50 | inhibition at 10 µM | inhibition at 2 µM | SMILES |
| --- | --- | --- | --- |
|  | > 75% |  | CC1(CO)CN(c2cnc(-c3cn(CC4CC5(CC5)CO4)nn3)c(OC3CC3)c2)C1 (centres unmarked) [Compound I-26] |
|  | 50 to 75% |  | CC1(CO)CN(c2cnc(-c3cn(CC4OCC(F)(F)CO4)nn3)c(OC3CC3)c2)C1 [Compound I-27] |
| ≤ 300 nM |  | > 75% | CN(C)c1cc(C#CC2(O)CC2)ccc1-c1cn(CC2OCC(C)(C)CO2)nn1 [Compound I-28] |
|  | ≤ 25% |  | CC1(C)COC(Cn2cc(C#Cc3ccc(C4CC4)cc3)nn2)OC1 [Compound I-29] |
| ≤ 300 nM |  | > 75% | CC(O)C1(C)CN(c2ccc(-c3cn(CC4OCC5(CC5)CO4)nn3)c(N(C)C)c2)C1 (centres unmarked) [Compound I-30] |
| ≤ 300 nM | > 75% |  | OC1CC2(C1)CN(c1cnc(-c3cn(CC4OCC5(CC5)CO4)nn3)c(OC3CC3)c1)C2 (centres unmarked) [Compound I-31] |
|  | ≤ 25% |  | CC1(C)COC(Cn2cc(C#Cc3ccncc3)nn2)OC1 [Compound I-32] |
|  | ≤ 25% |  | Cc1cc(C#CC2CC2)ccc1-c1cn(Cc2cnco2)nn1 [Compound I-33] |
| ≤ 300 nM |  | > 75% | CC1(C)COC(Cn2cc(-c3ncc(C#CC4(O)CC4)cc3OC3CC3)nn2)OC1 [Compound I-34] |
| ≤ 300 nM |  | > 75% | OC1(C#Cc2cnc(-c3cn(CC4OCC5(CC5)CO4)nn3)c(OC3CC3)c2)CC1 [Compound I-35] |
| ≤ 300 nM |  | > 75% | CC1(C)COC(Cn2cc(-c3ncc(C#CCNS(C)(=O)=O)cc3OC3CC3)nn2)OC1 [Compound I-36] |
| ≤ 300 nM | > 75% |  | CCc1cc(C#CC(N)=O)ccc1-c1cn(CC2OCC(C)(C)CO2)nn1 [Compound I-37] |
| ≤ 300 nM |  | > 75% | CC1(C)COC(Cn2cc(-c3ncc(C#CCNC4CC(F)(F)C4)cc3OC3CC3)nn2)OC1 [Compound I-38] |
| 300 to 1000 nM | > 75% |  | CN(C)c1cc(N2CC(C)(CO)C2)ccc1-c1cn(CC2OCC(C)(C)CO2)cn1 [Compound I-39] |
|  | 50 to 75% |  | CC1(C)COC(Cn2cc(-c3ncc(CC#N)cc3OC3CC3)nn2)OC1 [Compound I-40] |
| ≤ 300 nM |  | > 75% | CN(C)c1cc(N2CC(C)(CO)C2)ccc1-c1cn(CC2OCC3(CC3)CO2)cn1 [Compound I-41] |
|  | > 75% |  | CN(C)c1cc(N2CC3(COC3)C2)ccc1-c1cn(CC2OCC3(CC3)CO2)cn1 [Compound I-42] |
|  | ≤ 25% |  | CC1(C)COC(Cn2ncc(C#Cc3ccncc3)n2)OC1 [Compound I-43] |
